Measurements published in article PMC10077338, “Galangin delivered by retinoic acid-modified nanoparticles targeted hepatic stellate cells for the treatment of hepatic fibrosis” (RSC Advances, 2023).

Key:
HF model induced by CCl4 = assay: Anti-HF effect in vivo; parameters: species or system C57BL/6 mice; conditions: 20 mg kg^−1 oral daily for 4 weeks, CCl4 mice
Procedure: Forty 6 weeks-old male C57BL/6 mice (weight: 20 ± 2 g; […]) were randomly divided into five groups (n = 8 per group): control; tetrachloromethane (CCl4)-treated; free GA; GA-NPs; and RA-GA-NPs. The HF model was induced by intraperitoneal injection with 10% CCl4 (diluted in olive oil, 5 mL per kg body weight) thrice per week for 4 consecutive weeks.[33–35] The control mice received an intraperitoneal injection with an equal volume of olive oil. The mice in all treatment groups received an injection with CCl4 for 4 weeks, as well as free GA, GA-NPs, or RA-GA-NPs (20 mg kg^−1) through oral administration once daily for 4 weeks; the dose of GA was based on previous reports.[36,37] All mice were sacrificed 12 h after the last administration, and blood specimens were collected through retro-orbital bleeding. Serum was subsequently separated by centrifugation at 3500 rpm for 15 min at 4 °C and stored at −20 °C. […] is typically used to discriminate collagen fibers from tissues on histological slides. […] The levels of ALT, AST, and Hyp were determined using detection kits, respectively, according to the instructions provided by the manufacturer. In addition, the serum levels of markers, HA, LN, PC III, and Col IV were determined using ELISA kits based on the respective protocols.

aHSC = tested on: aHSC; parameters: method as in PMID 32893252; conditions: cited from earlier work
[1] = Pharmacokinetics after oral administration; assay type: in vivo, Sprague–Dawley rats
Procedure: All animal procedures were approved by the Animal Care and Use Committee of the Renmin Hospital of Wuhan University (Laboratory Animal Welfare and Ethics Committee [Institutional Animal Care and Use Committee] Issue No.: WDRM NO.20200501). […] Free GA, GA-NPs, and RA-GA-NPs were orally administered (GA concentration: 50 mg kg^−1). Subsequently, 200 μL of blood were collected at predetermined time points (i.e., 0.5, 1, 2, 4, 6, 8, 10, 12, and 24 h). The concentrations of GA in plasma were determined by HPLC. Plasma samples (200 μL) were extracted using 200 μL of acetonitrile, vortexed for 10 min, and centrifuged at 5000 rpm for 5 min. Thereafter, the supernatant was collected and filtered using a 0.45 μm nylon 66 membrane. Finally, each sample (20 μL) was injected into the HPLC system.

[2] = both sexes, Sprague-Dawley, rat, plasma, GA 50 mg kg^−1, n = 6

For `O=c1c(O)c(-c2ccccc2)oc2cc(O)cc(O)c12` [Free GA, 3,5,7-trihydroxyflavone], the “effect on the biomarkers of HF (HA, LN, PC III, Col IV)” value (HF model induced by CCl4) is listed as “modest anti-fibrotic effect”, the “concentration at which inhibition of aHSC in vitro was initiated” value (aHSC) is listed as 6 µg/mL and the AUC ([1]; GA 50 mg kg^−1, n = 6) is listed as 2580 ± 470 ng·h/mL. For the same compound, the CL ([1]; GA 50 mg kg^−1, n = 6) was 3.99 ± 0.73 (mg kg^−1)/h(μg mL^−1), the V d ([1]; GA 50 mg kg^−1, n = 6) was 20.98 ± 4.22 L/kg and the “time for which serum drug concentrations were detected / maintained” value ([1]; GA 50 mg kg^−1, sampling up to 24 h) was “up to 12 h”. It also gave an MRT [1, 2] of 5.25 ± 0.16 h and a half-life [1, 2] of 3.64 ± 0.11 h.
